Data from ChEMBL document CHEMBL3988442, “University of Dundee, Small-Polar-MMV Screening Library” (2021).

Each compound was assayed against Tryptophan--tRNA ligase (Mycobacterium tuberculosis (strain ATCC 25618 / H37Rv), UniProt P9WFT3) (assay: Biochemical assay for Mt-TrpRS).
Format: functional

Sequence of Tryptophan--tRNA ligase (P9WFT3 whole entry): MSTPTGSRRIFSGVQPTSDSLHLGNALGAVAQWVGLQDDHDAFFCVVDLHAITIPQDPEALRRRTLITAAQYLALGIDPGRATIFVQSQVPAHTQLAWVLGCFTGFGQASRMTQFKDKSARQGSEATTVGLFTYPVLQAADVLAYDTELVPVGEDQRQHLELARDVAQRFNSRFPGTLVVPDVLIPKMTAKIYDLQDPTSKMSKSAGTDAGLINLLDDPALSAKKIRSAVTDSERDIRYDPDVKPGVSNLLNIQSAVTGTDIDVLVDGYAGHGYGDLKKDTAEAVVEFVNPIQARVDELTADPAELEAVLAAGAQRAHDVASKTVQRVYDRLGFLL

| Compound | IC50 [µM] |
| --- | --- |
| Cc1cc(C)n(NC(=O)c2ccccc2F)c(=O)c1 | > 195 |
| Cc1cnc(N)c(C(=O)C2CCN(C(=O)c3cnc(C)cn3)CC2)c1 | > 195 |
| CCC(=O)N1CCC2(C=C(C(=O)N3CCCC3)c3ccccc32)CC1 | > 195 |
| Cc1cccc(C2CCCN2S(=O)(=O)N(C)C)n1 (centres undefined) | > 195 |
| Nc1nccc(C2CCN(CCO)C2)n1 (centres undefined) | > 195 |
| CC(=O)N1CCCC(c2cccc(-n3ccnc3)n2)C1 (centres undefined) | > 195 |
| CCS(=O)(=O)N1CCc2c(COCc3ccncc3)cncc2C1 | > 195 |
| COc1c(C(=O)N2CCNC(=O)C2)cnc2c1c(C)nn2C | > 195 |
| CCO[C@H]1CC[C@H]2[C@H]1OCCN2C(=O)COc1ccccc1 | > 195 |
| CC(=O)N1CCCC(c2ccccn2)C1 (centres undefined) | > 195 |
| N#CCCN1CC(O)CN(C(=O)c2cccc(C(F)(F)F)c2)CC1=O (centres undefined) | > 195 |
| CN(C)C(=O)NCC1CC2(CO1)CN(c1nncs1)C2 (centres undefined) | > 195 |
| Cc1ncsc1C(=O)NC1CCN(CCC#N)CC1 | > 195 |
| COCCc1noc(CN(C)C2CCCN(c3cccnn3)C2)n1 (centres undefined) | > 195 |
| CCC(CC#N)n1ccc(C(F)(F)F)n1 (centres undefined) | > 195 |
| Cc1ccc(S(=O)(=O)N2C[C@H]3C[C@H](NC(=O)c4cc[nH]n4)[C@H]3C2)cc1 | > 195 |
| CN(C)CCNC(=O)c1nc2c(s1)CCCN2C(=O)C1CC1 | > 195 |
| NC(=O)CN1CCOCC(Cc2ccccc2)C1 (centres undefined) | > 195 |
| COCCC(=O)N1CCCC1c1csc(Nc2ccccn2)n1 (centres undefined) | > 195 |
| Cc1cc(CN2CCN(C(=O)NCc3ccco3)CC2)no1 | > 195 |
| Cn1cnnc1C1CCN(C(=O)c2cc3c(s2)CCCC3)CC1 | > 195 |
| O=C(O)CCc1nc2nccc(-c3ccc(F)cc3)n2n1 | > 195 |

| Compound | IC50 [µM] |
| --- | --- |
| O=C(O)C1(Cc2cc(-c3ccccc3F)no2)CCOCC1 | > 195 |
| c1cn(-c2cnc(C3CCCNC3)cn2)cn1 (centres undefined) | > 195 |
| CCCC1CN(CC(C)C)C(=O)c2cccnc2O1 (centres undefined) | > 195 |
| O=C(NC[C@H]1CC[C@H](c2nnc(-c3cccnc3)o2)CC1)C1CC1 | > 195 |
| COc1cccc(-c2ccnc(C3CCNCC3)c2)c1 | > 195 |
| COc1ccc(CNc2cnn(CC(F)F)c2)cc1 | > 195 |
| Cc1nnc2n1CCN(Cc1csc(-c3ncccn3)n1)C2 | > 195 |
| Cn1nccc1C(=O)N1CCCC1c1[nH]ncc1C(N)=O (centres undefined) | > 195 |
| c1cncc(CN2CCN3C[C@H](Oc4cncnc4)C[C@H]3C2)c1 | > 195 |
| Cn1cc(C(=O)NCc2cncc3c2CCN(c2ccccn2)C3)cn1 | > 195 |
| Cc1ccc(N2CCc3ncnc(C)c3CC2)nn1 | > 195 |
| Cc1cc(NC(=O)CN2CCc3cncnc3C2)no1 | > 195 |
| CC(=O)N1CCCC1c1cccc(Cc2ccccc2Cl)n1 (centres undefined) | > 195 |
| O[C@@]1(c2ccccn2)CC[C@H]2CN(Cc3ccccn3)C[C@H]21 | > 195 |
| CCOC(=O)COc1ccc(C(C)=O)c(O)c1 | > 195 |
| Cc1nc(Cn2c3c(ccc2=O)CC(NC(N)=O)CC3)cs1 (centres undefined) | > 195 |
| C[C@@]1(O)CCN(Cc2cc[nH]n2)C[C@H]1Oc1cccc(F)c1 | > 195 |
| CNc1nc2c(s1)C(=O)CN(C(=O)NCCc1ccccc1)C2 | > 195 |
| CCn1cc(N)c(-c2nnc3n2CCC3)n1 | > 195 |
| Cn1ccc(C(=O)N2CCCC(c3cc(O)n(C)n3)C2)n1 (centres undefined) | > 195 |
| CN(Cc1ccc(F)cc1)CC1(O)CCN(C(=O)c2ccncc2)C1 (centres undefined) | > 195 |
| O=C(NCC1CC2(CO1)CN(Cc1cccs1)C2)C1CCC1 (centres undefined) | > 195 |

| Compound | IC50 [µM] |
| --- | --- |
| CC(=O)N1CCCC(c2ccnc(N(C)C)n2)C1 (centres undefined) | > 195 |
| COc1ccc(-c2cc(N)on2)cc1 | > 195 |
| Cc1cc(-c2cnn(CCNC(=O)Cc3ccccn3)c2C2CC2)on1 | > 195 |
| Cc1ccnc(C2CCN(C(=O)c3cnn(C)c3)C2)n1 (centres undefined) | > 195 |
| COc1ccccc1CC(=O)N1CC[C@H](O)[C@]2(CCCO2)C1 | > 195 |
| CC(C)OCc1nn(C)c2c1CN(Cc1cccs1)CC2 | > 195 |
| O=C1CC[C@H]2[C@H](CCN2c2ncccn2)N1c1ccccc1 | > 195 |
| COCCC(=O)NCCn1nc(C2CCNC2)c2cccnc21 (centres undefined) | > 195 |
| CN1CCCN(C(=O)c2ccnn2-c2ccc3ccccn23)CC1 | > 195 |
| CCOC(=O)CNC(=O)C1OC(c2ccccc2)=NN1C(C)=O (centres undefined) | > 195 |
| Oc1cc(CC2COCCN(CC3(O)CCOCC3)C2)ncn1 (centres undefined) | > 195 |
| CN(C)C(CNCc1nc(-c2ccsc2)no1)c1cccs1 (centres undefined) | > 195 |
| Cc1cc(CN2CC[C@@H]3O[C@@H](c4nnc(C)o4)C[C@H]3C2)no1 | > 195 |
| O=C(c1cccnn1)N1C[C@@H]2CC[C@H](Oc3cccc(F)c3)[C@@H]2C1 | > 195 |
| NC(=O)C1CCN(C(=O)c2ccn(-c3ccc(F)cc3)n2)CC1 | > 195 |
| O=C1CCC(=O)N1c1nn(Cc2ccc(F)cc2)cc1Cl | > 195 |
| CC1CN(Cc2ccccc2)CCCN1CCNS(C)(=O)=O (centres undefined) | > 195 |
| CC(=O)N1CCN(c2cc(CCN)nc(C3CC3)n2)CC1 | > 195 |
| CC(Cn1cccn1)NC(=O)NCCc1ccsc1 (centres undefined) | > 195 |
| CC1CN(Cc2ccccc2)CCCN1CCS(C)(=O)=O (centres undefined) | > 195 |
